Reference: PubChem BioAssay AID493002 (Sanford-Burnham Center for Chemical Genomics, 2010)

Each molecule was assayed on S. cerevisiae tim23-1 mutant growth, luminescence (assay: tim23-1 mutant yeast growth inhibitors, dose response, luminescence, uHTS hits (AID 493002);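 further: yeast grown roughly 22 hours at 25 °C before the luminescence read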).

In order of rising IC50:
1. Cc1ccc(S(=O)(=O)N[C@@H](Cc2ccccc2)C(=O)CCl)cc1  2.18 µM
2. CN1CCc2nc3sc(C(=O)C45CC6CC(CC(C6)C4)C5)c(N)c3cc2C1  2.43 µM
3. C[C@@]12C(=O)Nc3ccc(Br)cc3C(=O)N1[C@H]1c3ccccc3OC[C@@H]1[C@@H]2c1ccccc1  2.66 µM
4. C[C@@]12C(=O)Nc3ccc(Cl)cc3C(=O)N1[C@H]1c3ccccc3OC[C@@H]1[C@@H]2c1ccccc1  3.38 µM
5. O=C1c2ccccc2C(=O)N1c1nc(-c2cccs2)cs1  3.63 µM
6. Cc1ccc2nc(N3C(=O)CNC3=S)sc2c1  3.73 µM
7. CC(C(Sc1ccccc1N)c1ccccc1)[N+](=O)[O-] (configuration not stated)  3.92 µM
8. COn1c(=O)c(-c2cccs2)[n+]([O-])c2ccccc21  3.96 µM
9. Cc1ccc(S(=O)(=O)Oc2ccccc2C=C2C(=O)N(C)C(=O)N(C)C2=O)cc1  4.22 µM
10. COc1cc(C(=O)N/N=C/c2coc3ccc(Cl)cc3c2=O)ccc1O  4.34 µM
11. NC(=S)N/N=C/c1coc2ccc(Br)cc2c1=O  4.4 µM
12. COC(=O)c1ccc(C(=O)OC)c(NC(=O)CSc2cccc[n+]2[O-])c1  4.4 µM
13. CCc1ccc(NC(=O)/C(C#N)=C/c2ccncc2)cc1  4.41 µM
14. Cc1csc2nc(O)c(C(=O)NCCC3=CCCCC3)c(=O)n12  4.88 µM
15. N#Cc1c(-c2ccccc2)cc(-c2ccc(O)cc2)nc1N  5.58 µM
16. N#C/C(=C\c1ccc(Cl)cc1)C(=O)Nc1cccnc1  5.72 µM
17. Cc1ccc(Nc2nc(Cl)c(C=O)s2)cc1Cl  5.76 µM
18. CCSc1ncc(/C=N/Nc2ccc(Cl)cc2)n1C  5.9 µM
19. CC(C)(C)c1ccc(OCC(=O)NCc2ccco2)c(Br)c1  5.94 µM
20. c1ccc(-c2ncc(-c3ccn[nH]3)s2)cc1  5.97 µM
21. COc1ccc(NC(=O)C#Cc2ccccc2)cc1  6.06 µM
22. Cc1ccc(-c2nc3ccccc3[nH]2)s1  6.19 µM
23. Cn1c(C=O)c(C#Cc2ccccc2)c2ccccc21  6.21 µM
24. O=C(N/N=C/c1cc(Br)cc(Br)c1O)c1cccc(N2CCCC2=O)c1  6.37 µM
25. Oc1ccc(Oc2ccc(Oc3ccc(O)cc3)cc2)cc1  6.42 µM
26. CC1(S(=O)(=O)O)CC(=O)c2ccccc2C1=O (configuration not stated)  6.57 µM
27. NNC(=O)c1nc(-c2ccccc2)cc(-c2ccccc2)n1  6.65 µM
28. C=CCNC(=O)c1ccc2c3n(nc2c1)-c1ccc(Cl)cc1CO3  6.9 µM
29. Cc1nc2scc(C)n2c(=O)c1S(=O)(=O)Nc1ccc(OC(F)(F)F)cc1  6.96 µM
30. O=c1/c(=C/c2cccc3ccccc23)sc2ncnn12  7.13 µM
31. N#C/C(=C/c1ccc(N2CCOCC2)o1)c1nc2ccccc2[nH]1  7.2 µM
32. O=C(/C=C\Nc1cccc(F)c1)c1cccs1  7.31 µM
33. Cn1c(-c2sc3ccccc3c2Cl)n[nH]c1=S  7.61 µM
34. O=c1oc(-c2ccccc2F)nc2c1cnn2-c1ccccc1  7.71 µM
35. COc1ccc(NC(=O)Nc2nc3c(s2)CCCC3)cc1  7.73 µM
36. Cc1ccn2cc(C(=O)Nc3ccc4c(c3)OCCO4)nc2c1  7.9 µM
37. CCOC(=O)c1c(-c2ccccc2)oc2ccc(O)cc12  7.92 µM
38. O=C(Nc1nc2ccccc2s1)C1CCCN1S(=O)(=O)c1ccc(Cl)cc1 (configuration not stated)  8.08 µM
39. O=C(Nc1ccc(Oc2cccc3ccccc23)cc1)c1ccco1  8.33 µM
40. COC(=O)N/N=C/c1ccc(-c2cc(Cl)cc(Cl)c2)o1  8.73 µM
41. COc1ccc(C(C[N+](=O)[O-])c2c(-c3ccccc3)cc3ccccn23)cc1 (configuration not stated)  8.82 µM
42. COc1ccc(N2CCN(CCC(=O)c3ccc4ccccc4c3)CC2)cc1  8.84 µM
43. COc1cc2c(cc1OC)/C(=C/c1ccc(Cl)cc1)C(=O)OC2  8.86 µM
44. N=C1/C(=C\c2coc3ccccc3c2=O)C(=O)N=C2SC=CN12  8.9 µM
45. O=C(N/N=C/C=C\c1ccco1)c1cccs1  8.95 µM
46. Cc1cc2cc(CNC(=O)c3ccc(C)c([N+](=O)[O-])c3)ccc2[nH]1  9.14 µM
47. O=C(Nc1cccc(NC(=O)c2cccs2)c1)c1ccc(Br)o1  9.28 µM
48. CCN(CC)S(=O)(=O)c1ccc(C(=O)OCn2nnc3ccccc3c2=O)cc1  9.32 µM
49. COc1ccc(-c2cc(-c3ccccc3O)[nH]n2)cc1  9.38 µM
50. Cc1cnc(NC(=O)c2sc(Nc3ccccc3)nc2N)o1  9.39 µM
51. CCCCC(=O)NC(c1ccc(Cl)cc1)c1ccc2cccnc2c1O (configuration not stated)  9.68 µM
52. Cc1cc(C(=O)COC(=O)c2ccc([N+](=O)[O-])o2)c(C)n1CC1CCCO1 (configuration not stated)  10.1 µM
53. COc1ccc(C(=O)COC(=O)c2cncc(Br)c2)cc1  10.1 µM
54. CSC1=N/C(=C\c2ccc(C)cc2)C(=O)S1  10.3 µM
55. Oc1ccc2ccccc2c1/C=N/c1nccs1  10.4 µM
56. C#CCOCCOCCOCCNc1nc(N2CCN(C(=O)CCCCCCCCCCNC(=O)[C@H](CCCCN)n3cc(C)nn3)CC2)nc(N2CCN(C(=O)CCCCCCCCCCNC(=O)[C@H](CCCN=C(N)N)n3cc(C[C@@H](C)CC)nn3)CC2)n1  10.4 µM
57. O=C(Nc1ccc(OC(F)(F)F)cc1)N1CCN(c2ccnc3cc(Cl)ccc23)CC1  10.5 µM
58. Cc1ccc(Nc2cc(C)c3ccc(O)cc3n2)cc1C  11.1 µM
59. COc1ccc(C2=NNC(c3cccs3)=Nc3ccc(OC)cc32)cc1  11.1 µM
60. CCN(CC)c1ccc(/C=N/NC(=O)c2ccc3c(c2)OCCO3)cc1  11.3 µM
61. Brc1cccc(-c2n[nH]c(-c3ccccc3)n2)c1  11.5 µM
62. O=C(Nc1ccc2c(c1)OCCO2)c1cccc(Cl)c1  11.6 µM
63. O=Cc1sc(Nc2ccccc2)nc1Cl  11.7 µM
64. N#C/C(=C\c1ccc(OCc2ccccc2)cc1)C(N)=O  11.7 µM
65. Cc1ccc2nc(N3CCN(C=O)CC3)nc(-c3ccccc3)c2c1  11.9 µM
66. COC(=O)c1c(-c2ccc(S(C)(=O)=O)cc2)sc2ccc(OC)cc12  12 µM
67. CC1c2[nH]c3ccccc3c2CCN1C(=O)Nc1ccccc1 (configuration not stated)  12.1 µM
68. Cc1csc2nc(O)c(C(=O)NC3CCCCC3C)c(=O)n12 (configuration not stated)  12.2 µM
69. Cc1cccc(N2C(=O)c3ccc(Br)cc3C2=O)n1  12.7 µM
70. O=C(Nc1cccc(F)c1)N1CC=C(c2ccc(Cl)cc2)CC1  12.8 µM
71. O=C(c1cc(-c2ccc(O)cc2)on1)N1CCCc2ccccc21  12.9 µM
72. CCCCCOC(=O)Cc1c(C)nc(-c2ccccc2)[nH]c1=O  13.2 µM
73. O=C(/C=C/c1ccco1)Nc1scc(-c2ccccc2)c1C(=O)O  13.6 µM
74. Cc1ccc(-c2nnc(N3CCC(C)CC3)c3ccccc23)cc1  13.7 µM
75. CCCCSC1=C(C#N)C(c2ccccc2C)CC(=O)N1 (configuration not stated)  13.7 µM
76. CCN(CC)c1ccc2c(C)c(-c3ccc(N)cc3)c(=O)oc2c1  13.9 µM
77. COc1ccc(CCN(/C=C2\Sc3ccccc3C2=O)C(C)=O)cc1OC  14 µM
78. CC1CCCCN1C(=O)Nc1cccc(Cl)c1 (configuration not stated)  14.1 µM
79. CCOc1cc2c3c(c1)C(C)CC(C)(C)N3C(=O)C2=O (configuration not stated)  14.1 µM
80. O=C(Nc1ccc2oc(Cc3ccc(Cl)cc3)nc2c1)c1cccnc1  14.2 µM
81. CC(C)CN(C(=O)c1ccc2c(c1)OCCO2)c1c(N)n(Cc2ccccc2)c(=O)[nH]c1=O  14.2 µM
82. CC1=CC(C)(C)N(C(=O)c2ccc(F)cc2)c2cc3c(cc21)OCO3  14.3 µM
83. O=C(Nc1ccc2c(c1)OCCO2)c1cccc(Br)c1  14.5 µM
84. Cc1ccc(NC(=O)c2ccc(Cl)c(NC(=O)c3cccs3)c2)cc1  14.5 µM
85. O=C(N/N=C/c1ccc(Br)s1)c1c[nH]c2ccccc12  14.9 µM
86. CCC(=O)OCC(=O)[C@@]1(OC(=O)CC)[C@@H](C)C[C@H]2[C@@H]3CCC4=CC(=O)C=C[C@]4(C)[C@@]3(Cl)[C@@H](O)C[C@@]21C  14.9 µM
87. Nc1nc(-c2ccc(-c3ccccc3)cc2)cs1  14.9 µM
88. Cc1cccc(N=Nc2cnc(N)s2)c1  15.1 µM
89. COc1ccc(C(=O)CC(=O)c2ccccc2O)cc1  15.1 µM
90. O=C(Nc1ccc(F)c([N+](=O)[O-])c1)c1cccs1  15.3 µM
91. CC1(C)CC2CC(C)(CN2C(=O)c2cc(-c3ccc(O)cc3)on2)C1 (configuration not stated)  15.3 µM
92. Oc1ccc(Cl)cc1CNc1cnc2ccccc2c1  15.3 µM
93. Oc1ccc(N=Nc2ccccc2)cc1  15.3 µM
94. COc1ccc(OCC(=O)Nc2ccc3c(c2)CCC3)cc1  15.6 µM
95. Cc1cccn2c(=O)c(C(=O)NC3CCCCC3)c(O)nc12  15.6 µM
96. O=C(c1cc(-c2cccc(O)c2)on1)N1CCc2ccccc2C1  16 µM
97. O=C(O)c1ccc(N/N=C/c2ccc(-c3ccc(Br)cc3)o2)cc1  16.2 µM
98. Cc1ccc(-c2nnc(C)c(N3CCCC3)n2)cc1  16.6 µM
99. O=C(Nc1oc2ccc(Cl)cc2c(=O)c1-c1ccc(F)cc1)c1ccco1  17.1 µM
100. Cc1ccn2cc(-c3ccc(NC(=O)c4ccco4)cc3)nc2c1  17.6 µM
101. CCN1C(=O)/C(=C2\SC(N3CCCCC3)=NC2=O)c2ccccc21  17.8 µM
102. NC(N)=N/N=C/c1ccc(OCc2ccccc2Cl)cc1  18 µM
103. CCCCS/C(N)=N/N=C/c1ccccc1O  18.2 µM
104. CCc1ccc(C2CC(=O)NC(SCC(=O)OC(C)C)=C2C#N)cc1 (configuration not stated)  18.2 µM
105. O=C(Nc1ccc(Br)c(Cl)c1)C1CC1  18.3 µM
106. CC(=O)c1sc(-c2ccc(Cl)cc2)cc1N  18.8 µM
107. O=c1c2cc(Br)ccc2nc(-c2ccccc2)n1O  19.1 µM
108. CS(=O)(=O)c1ccc2nc(NC(=O)c3ccco3)sc2c1  19.4 µM
109. CCC1CCc2sc(C(=O)N(C)CC(=O)Nc3ccc(OC)cc3)cc2C1 (configuration not stated)  19.5 µM
110. O=C(CSc1nnnn1Cc1ccccc1)c1ccc(F)cc1  20 µM
111. O=C(Nc1cc(-c2ccccc2)[nH]n1)c1ccccc1F  20.2 µM
112. COc1ccc(S(=O)(=O)NCc2ccc(C)cc2)cc1  20.5 µM
113. CCCn1nnc(NC(=O)c2sc3ccccc3c2Cl)n1  20.7 µM
114. CN(C(=O)c1ccco1)c1nnc(C23CC4CC(CC(C4)C2)C3)s1  20.8 µM
115. Cc1ccc(NC(=O)c2cc(C)n(-c3ccccc3)c2C)cc1  21 µM
116. Cc1ccc2c(c1)COc1c3ccc(C(=O)NC(C)C)cc3nn1-2  24 µM
117. Oc1ccc(-c2csc(Nc3ccccn3)n2)c(O)c1  24.9 µM
118. Cc1ccc(-c2nnc(NC3CCCC3)s2)cc1  26.6 µM
119. O=C(N/N=C/c1cccs1)c1cc(-c2cccc3ccccc23)n[nH]1  28 µM
120. Cn1nc(C(F)(F)F)c2cc(NC(=O)OCC(C)(C)C)sc21  28.2 µM
121. Cc1ccc(/C=N/NC(=O)c2ccc3c(c2)OCCO3)s1  34.6 µM
122. NC(=O)c1c(NC(=O)c2ccccc2F)sc2c1CCCC2  38.3 µM
